Data: PubChem BioAssay (NCI)
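Tested at 5 concentrations; 48 h exposure; 96-well plates; endpoints linearly interpolated, else capped at highest concentration. TGI denotes the concentration required for complete inhibition of growth.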

Legend:
Assay in all cases: growth of human tumour cells (NCI), 48 h
NCI-H460 lung = tested on: NCI-H460 lung
SF-268 CNS = tested on: SF-268 CNS
SNB-75 CNS = tested on: SNB-75 CNS
UO-31 renal = tested on: UO-31 renal
MALME-3M melanoma = tested on: MALME-3M melanoma
NCI-H226 lung = tested on: NCI-H226 lung
HCT-116 colon = tested on: HCT-116 colon
KM12 colon = tested on: KM12 colon
EKVX NSCLC = tested on: EKVX NSCLC
SK-MEL-2 melanoma = tested on: SK-MEL-2 melanoma
DLD-1 colon = tested on: DLD-1 colon
UACC-257 melanoma = tested on: UACC-257 melanoma
M19-MEL melanoma = tested on: M19-MEL melanoma
XF 498 CNS = tested on: XF 498 CNS
SK-OV-3 ovarian = tested on: SK-OV-3 ovarian
SF-539 CNS = tested on: SF-539 CNS
M14 melanoma = tested on: M14 melanoma
HOP-18 NSCLC = tested on: HOP-18 NSCLC
DMS 273 small cell lung = tested on: DMS 273 small cell lung
K-562 leukemia = tested on: K-562 leukemia
MOLT-4 leukemia = tested on: MOLT-4 leukemia
CAKI-1 renal = tested on: CAKI-1 renal
A498 renal = tested on: A498 renal
HL-60(TB) leukemia = tested on: HL-60(TB) leukemia
KM20L2 colon = tested on: KM20L2 colon
SW-620 colon = tested on: SW-620 colon
ACHN renal = tested on: ACHN renal
CCRF-CEM leukemia = tested on: CCRF-CEM leukemia
A549 NSCLC = tested on: A549 NSCLC
U251 CNS = tested on: U251 CNS
TK-10 renal = tested on: TK-10 renal
HCT-15 colon = tested on: HCT-15 colon
SR leukemia = tested on: SR leukemia
IGROV1 ovarian = tested on: IGROV1 ovarian
OVCAR-8 ovarian = tested on: OVCAR-8 ovarian
SNB-78 CNS = tested on: SNB-78 CNS
SK-MEL-5 melanoma = tested on: SK-MEL-5 melanoma
786-0 renal = tested on: 786-0 renal
HOP-62 NSCLC = tested on: HOP-62 NSCLC
SK-MEL-28 melanoma = tested on: SK-MEL-28 melanoma
HT29 colon = tested on: HT29 colon
OVCAR-4 ovarian = tested on: OVCAR-4 ovarian
COLO 205 colon = tested on: COLO 205 colon
RPMI-8226 leukemia = tested on: RPMI-8226 leukemia
OVCAR-5 ovarian = tested on: OVCAR-5 ovarian
UACC-62 melanoma = tested on: UACC-62 melanoma
LXFL 529 NSCLC = tested on: LXFL 529 NSCLC
HCC-2998 colon = tested on: HCC-2998 colon
SN12C renal = tested on: SN12C renal
SNB-19 CNS = tested on: SNB-19 CNS
SF-295 CNS = tested on: SF-295 CNS
NCI-H23 lung = tested on: NCI-H23 lung
NCI-H522 lung = tested on: NCI-H522 lung
DMS 114 small cell lung = tested on: DMS 114 small cell lung
LOX IMVI melanoma = tested on: LOX IMVI melanoma
HOP-92 NSCLC = tested on: HOP-92 NSCLC
OVCAR-3 ovarian = tested on: OVCAR-3 ovarian
RXF 393 renal = tested on: RXF 393 renal
RXF-631 renal = tested on: RXF-631 renal

For `c1cc(-c2cn3c(n2)SCC3)ccn1`, the TGI (NCI-H460 lung) was > 95.2 µM, the TGI (SF-268 CNS) was > 100 µM and the TGI (SNB-75 CNS) was > 100 µM. The TGI (UO-31 renal) was > 100 µM, the TGI (MALME-3M melanoma) was > 100 µM and the TGI (NCI-H226 lung) was > 100 µM. For the same molecule, the TGI (HCT-116 colon) was > 60.4 µM, the TGI (KM12 colon) was > 100 µM and the TGI (EKVX NSCLC) was > 100 µM. For the same molecule, the TGI (SK-MEL-2 melanoma) was > 100 µM, the TGI (DLD-1 colon) was > 100 µM and the TGI (UACC-257 melanoma) was > 100 µM. For the same molecule, the TGI (M19-MEL melanoma) was > 100 µM, the TGI (XF 498 CNS) was > 100 µM and the TGI (SK-OV-3 ovarian) was > 100 µM. The TGI (SF-539 CNS) was > 65.2 µM, the TGI (M14 melanoma) was > 100 µM and the TGI (HOP-18 NSCLC) was > 100 µM. For the same molecule, the TGI (DMS 273 small cell lung) was 93.1 µM, the TGI (K-562 leukemia) was > 31.6 µM and the TGI (MOLT-4 leukemia) was > 100 µM. For the same molecule, the TGI (CAKI-1 renal) was > 100 µM, the TGI (A498 renal) was > 100 µM and the TGI (HL-60(TB) leukemia) was > 67.5 µM. The TGI (KM20L2 colon) was > 100 µM, the TGI (SW-620 colon) was > 57.7 µM and the TGI (ACHN renal) was > 100 µM. For the same molecule, the TGI (CCRF-CEM leukemia) was > 100 µM, the TGI (A549 NSCLC) was > 100 µM and the TGI (U251 CNS) was > 100 µM. The TGI (TK-10 renal) was > 100 µM, the TGI (HCT-15 colon) was > 59 µM and the TGI (SR leukemia) was > 100 µM. For the same molecule, the TGI (IGROV1 ovarian) was > 100 µM, the TGI (OVCAR-8 ovarian) was > 100 µM and the TGI (SNB-78 CNS) was > 100 µM. For the same molecule, the TGI (SK-MEL-5 melanoma) was > 100 µM, the TGI (786-0 renal) was 44.5 µM and the TGI (HOP-62 NSCLC) was > 100 µM. The TGI (SK-MEL-28 melanoma) was > 100 µM, the TGI (HT29 colon) was > 100 µM and the TGI (OVCAR-4 ovarian) was > 100 µM. The TGI (COLO 205 colon) was > 100 µM, the TGI (RPMI-8226 leukemia) was > 100 µM and the TGI (OVCAR-5 ovarian) was > 100 µM. The TGI (UACC-62 melanoma) was > 100 µM, the TGI (LXFL 529 NSCLC) was > 100 µM and the TGI (HCC-2998 colon) was > 100 µM. For the same molecule, the TGI (SN12C renal) was > 100 µM, the TGI (SNB-19 CNS) was > 100 µM and the TGI (SF-295 CNS) was > 100 µM. The TGI (NCI-H23 lung) was > 100 µM, the TGI (NCI-H522 lung) was > 100 µM and the TGI (DMS 114 small cell lung) was > 89.6 µM. The TGI (LOX IMVI melanoma) was > 100 µM, the TGI (HOP-92 NSCLC) was > 100 µM and the TGI (OVCAR-3 ovarian) was > 100 µM.
For `CCCC(S(=O)(=O)c1ccccc1)S(=O)(=O)c1ccccc1`, the TGI (NCI-H460 lung) was > 100 µM, the TGI (SNB-75 CNS) was > 100 µM and the TGI (UO-31 renal) was > 100 µM. The TGI (MALME-3M melanoma) was > 100 µM, the TGI (NCI-H226 lung) was > 100 µM and the TGI (HCT-116 colon) was > 100 µM. The TGI (KM12 colon) was > 100 µM, the TGI (EKVX NSCLC) was > 100 µM and the TGI (SK-MEL-2 melanoma) was > 100 µM. For the same molecule, the TGI (DLD-1 colon) was > 100 µM, the TGI (UACC-257 melanoma) was > 100 µM and the TGI (M19-MEL melanoma) was > 100 µM. For the same molecule, the TGI (XF 498 CNS) was > 100 µM, the TGI (SK-OV-3 ovarian) was > 100 µM and the TGI (SF-539 CNS) was > 100 µM. The TGI (M14 melanoma) was > 100 µM, the TGI (DMS 273 small cell lung) was > 100 µM and the TGI (K-562 leukemia) was > 100 µM. The TGI (MOLT-4 leukemia) was > 100 µM, the TGI (CAKI-1 renal) was > 100 µM and the TGI (A498 renal) was > 100 µM. For the same molecule, the TGI (HL-60(TB) leukemia) was > 100 µM, the TGI (KM20L2 colon) was > 100 µM and the TGI (SW-620 colon) was > 100 µM. For the same molecule, the TGI (RXF 393 renal) was > 100 µM, the TGI (ACHN renal) was > 100 µM and the TGI (CCRF-CEM leukemia) was > 100 µM. For the same molecule, the TGI (A549 NSCLC) was > 100 µM, the TGI (U251 CNS) was > 100 µM and the TGI (TK-10 renal) was > 100 µM. The TGI (HCT-15 colon) was > 100 µM, the TGI (IGROV1 ovarian) was > 100 µM and the TGI (OVCAR-8 ovarian) was > 100 µM. For the same molecule, the TGI (SNB-78 CNS) was > 100 µM, the TGI (SK-MEL-5 melanoma) was > 100 µM and the TGI (786-0 renal) was > 100 µM. For the same molecule, the TGI (HOP-62 NSCLC) was > 100 µM, the TGI (SK-MEL-28 melanoma) was > 100 µM and the TGI (HT29 colon) was > 100 µM. The TGI (OVCAR-4 ovarian) was > 100 µM, the TGI (RPMI-8226 leukemia) was > 100 µM and the TGI (OVCAR-5 ovarian) was > 100 µM. The TGI (UACC-62 melanoma) was > 100 µM, the TGI (RXF-631 renal) was > 100 µM and the TGI (LXFL 529 NSCLC) was > 100 µM. The TGI (HCC-2998 colon) was > 100 µM, the TGI (SF-295 CNS) was > 100 µM and the TGI (NCI-H23 lung) was > 100 µM. For the same molecule, the TGI (DMS 114 small cell lung) was > 100 µM and the TGI (OVCAR-3 ovarian) was > 100 µM.
